Laboratory results: patent US8058264B2, “Pharmaceutical compositions comprising CB1 cannabinoid receptor antagonists and potassium channel openers for the treatment of obesity and related conditions” (Abbott Products GmbH, priority 2004, dated 2011)

Assays:
[1] = system: rat perifused pancreatic islets; assay: Insulin secretion in rat perifused pancreatic islets, simple screen at 11 mM glucose; assay type: cell-based; conditions: for effect on insulin secretion: 0-30 and 30-60 min
Method: (§1) Animals: Male Wistar rats in the weight range 175-200 g were group housed in standard animal cages at a temperature of 21±2° C. and humidity of 55±10%. Animals were maintained on a 12 h light-dark cycle (lights on 06.00-18.00 h) with free access to standard rodent diet (B&K Universal Ltd standard rat and mouse diet (BK 001P), Beekay Feeds, B&K Universal Ltd, Hull, East Riding of Yorkshire) and tap water. The rats were accustomed to these conditions for at least one week before experimentation.
(§2) Experimental procedures: After the rats were sacrificed, the branch of the bile duct leading to the liver and the duodenal end of the duct in the pancreas were clamped and the pancreas distended by injection of ice-cold 0.9 mg/ml collagenase solution into the bile duct. The pancreas were then removed and incubated statically for 10-12 min at 37° C. Following the incubation, 10 ml of cold buffer was added and the suspension shaken vigorously by hand for 1 min. The islets were allowed to settle for 5 min on ice and washed three times using ice-cold buffer. Well formed and good sized islets from 3 rats were hand-picked (under a low power microscope) and pooled and a final selection of islet transferred to the perifusion apparatus. Oxygenated (95% O2/5% CO2) Gey & Gey buffer containing 1 mg/ml bovine serum albumin and 4 mM glucose were used throughout the experiment unless otherwise stated (see Dickinson et al. Eur J Pharmacol 1997;339:69-76 for further details).
(§3) On each day, two experiments were performed in parallel in 2 identical, independent sets of perifusion apparatus each consisting of sufficient number of chambers. Each chamber was loaded with 20 hand-picked islets. Islets were perifused for an initial 30 min period in media containing 4 mM glucose. Perifusate was then collected at 2 min intervals for the remainder of the experiment.
Perifusate samples were then pooled to create 3 samples per chamber as follows: Baseline (4 mM): Samples 1-5 (first 10 minutes); 0-30 minutes (11 mM glucose): Samples 6-21; 30-60 minutes (11 mM glucose): Samples 22-36.
Perifusate fractions were stored at −75° C. until required for insulin assay. Insulin content of fractions were assayed using a 96-well ELISA assay (Mercodia). Initial insulin assays were performed in triplicate on three pooled fractions from each chamber (18 samples per experiment, 108 samples in total for 6 experiments).

[2] = system: rat perifused pancreatic islets; assay: Insulin secretion in rat perifused pancreatic islets, in depth investigation (Phase 1 and Phase 2); assay type: cell-based
Method: as §1, with “001 P),” for “001P),”
as §2, with “procedures: Three rats (sufficient for” for “procedures: After”, “the isolation of enough islets to allow for 2 perifusion experiments per day)” for “the rats”
as §3, with “was” for “was then”, “experiment. After the first 10 min of the experiment (to collect baseline insulin values), the media in each chamber were switched to one containing the relevant drug concentration/vehicle/glucose concentration and perifusate collected for a further 62 min to produce a total of 36 fractions for each chamber.” for “experiment.”
Experiments were organised to evaluate firstly (Phase I) the effect of Compounds at a single concentration on glucose-stimulated insulin secretion (two independent sets of experiments) and secondly (Phase II), determination of the dose-dependent effect of these compounds to inhibit insulin secretion at 11 mM glucose (three independent sets of experiments).
Perifusate fractions were stored at −75° C. until required for insulin assay. Insulin content of fractions were assayed using a 96-well ELISA assay (Mercodia). Initial insulin assays were performed on only every third fraction (72 assays per experiment).

[3] = target: T1, hamster SUR1 (Cricetus cricetus, UniProt Q09427); assay: Competitive binding to sulfonylurea and KCO sites of SUR1 ([3H]glibenclamide displacement, COS-cell membranes); conditions: SUR1 versus SUR2 selectivity, in words
T1 construct: expressed in transfected cells; host or cells: COS-1 cells, transient transfection (pcDNA vector), membrane preparation
T1 sequence (Q09427 whole entry): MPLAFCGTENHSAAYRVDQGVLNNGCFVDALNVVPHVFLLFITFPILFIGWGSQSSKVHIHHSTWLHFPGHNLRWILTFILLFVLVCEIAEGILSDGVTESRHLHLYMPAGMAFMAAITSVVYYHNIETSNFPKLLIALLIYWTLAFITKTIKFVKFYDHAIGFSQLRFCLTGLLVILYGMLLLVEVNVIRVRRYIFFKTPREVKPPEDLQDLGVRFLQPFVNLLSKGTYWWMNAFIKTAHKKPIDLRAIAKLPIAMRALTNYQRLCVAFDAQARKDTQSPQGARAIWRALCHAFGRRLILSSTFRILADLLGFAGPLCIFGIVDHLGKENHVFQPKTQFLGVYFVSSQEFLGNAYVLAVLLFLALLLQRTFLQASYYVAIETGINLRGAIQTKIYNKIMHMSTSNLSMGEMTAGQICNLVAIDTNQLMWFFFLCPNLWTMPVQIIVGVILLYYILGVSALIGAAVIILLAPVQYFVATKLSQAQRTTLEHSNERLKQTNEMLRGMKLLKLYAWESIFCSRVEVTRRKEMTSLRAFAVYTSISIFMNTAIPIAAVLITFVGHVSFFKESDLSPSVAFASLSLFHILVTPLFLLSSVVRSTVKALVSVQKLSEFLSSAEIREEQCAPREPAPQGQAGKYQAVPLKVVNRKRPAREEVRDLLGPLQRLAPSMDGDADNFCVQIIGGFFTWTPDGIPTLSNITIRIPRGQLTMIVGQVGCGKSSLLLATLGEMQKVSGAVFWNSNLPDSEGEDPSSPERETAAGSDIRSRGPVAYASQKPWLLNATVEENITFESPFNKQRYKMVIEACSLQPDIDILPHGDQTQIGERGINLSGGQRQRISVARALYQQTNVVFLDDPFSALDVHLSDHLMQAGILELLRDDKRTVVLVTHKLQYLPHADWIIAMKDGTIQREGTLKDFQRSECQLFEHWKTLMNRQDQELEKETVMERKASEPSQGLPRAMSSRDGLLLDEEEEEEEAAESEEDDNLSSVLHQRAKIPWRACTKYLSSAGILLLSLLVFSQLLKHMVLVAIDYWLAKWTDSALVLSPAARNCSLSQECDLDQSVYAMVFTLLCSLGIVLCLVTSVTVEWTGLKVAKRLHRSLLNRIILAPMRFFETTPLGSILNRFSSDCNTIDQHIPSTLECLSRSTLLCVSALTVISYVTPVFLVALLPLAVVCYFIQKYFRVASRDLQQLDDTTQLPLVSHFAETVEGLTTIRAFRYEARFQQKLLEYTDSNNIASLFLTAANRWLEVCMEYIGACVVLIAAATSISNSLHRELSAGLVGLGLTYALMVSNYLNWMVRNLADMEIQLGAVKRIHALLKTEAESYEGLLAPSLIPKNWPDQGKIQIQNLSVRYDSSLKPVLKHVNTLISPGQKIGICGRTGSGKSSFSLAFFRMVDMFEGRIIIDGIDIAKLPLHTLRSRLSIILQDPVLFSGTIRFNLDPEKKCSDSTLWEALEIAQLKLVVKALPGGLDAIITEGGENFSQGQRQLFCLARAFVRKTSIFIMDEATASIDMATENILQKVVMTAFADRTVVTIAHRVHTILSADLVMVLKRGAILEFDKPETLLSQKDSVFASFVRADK
Method: Competitive binding experiments were performed to characterize the affinity of the test compounds for the binding sites for sulfonylureas and KATP channel openers (=KCOs) on hamster SUR1. To assess the affinity for the sulfonylurea site membranes from COS-cells transiently expressing hamster SUR1 were incubated in the presence of [^3H]glibenclamide with increasing concentrations of test compounds. […] Per curve 9-15 distinct concentrations were tested covering the relevant range. All measurements were repeated at least 5 times in independent experiments.
[^3H]glibenclamide (specific activity 51 Ci mmol^−1) was obtained from NEN (Dreieich, Germany). If suitable, stock solutions were prepared in dimethylsulfoxide with a final solvent concentration in the media below 1%.
SUR- or Kir6.x isoforms were used either subcloned in the pcDNA (hamster SUR1, mouse Kir6.2) or pCMV vector (rat SUR2A, SUR2B).
For transfection the cells were incubated 4 hours in a Tris-buffered salt solution containing DNA (5-10 μg/ml) plus DEAE-dextran (1 mg/ml), 2 min in HEPES-buffered salt solution plus dimethylsulfoxide (10%) and 4 hours in DMEM-HG plus chloroquine (100 μM). Cells were then returned to DMEM-HG plus 10% FCS. […] For binding experiments resuspended membranes (final protein concentration 5-50 μg/ml) were incubated in “Tris-buffer” (50 mM, pH 7.4) containing either [^3H]glibenclamide (final concentration 0.3 nM or 3 nM and nonspecific binding defined by 100 nM or 1 μM glibenclamide for SUR1 or SUR2Y1205S-isoforms, respectively) or [^3H]P1075 (final concentration 3 nM, nonspecific binding defined by 100 μM pinacidil) and increasing concentrations of the test compounds. […] Incubations were carried out for 1 h at room temperature and were terminated by rapid filtration through Whatman GF/B filters.
The inhibition constant (Ki value) of the test substances was calculated from the respective IC50 value, and was stated as the negative logarithmised value thereof (pKi).

[4] = system: male sugar rats [Ico: ZUCKER-fa/fa (fatty)]; assay: 2 week chronic administration: body weight gain in male sugar rats (ZUCKER-fa/fa); assay type: in vivo, rat; conditions: for decrease of body weight in comparison to vehicle-treated rats: day 14
Method: Studies were performed in male sugar rats [[Ico: ZUCKER-fa/fa (fatty) (Orl] (Charles River France) weighing initially 400 to 490 g. Animals were housed two or three in a plastic cage in a temperature (20-24° C.), relative humidity (45-65%) and 12-h light/dark cycle (light 7:00 a.m. to 7:00 p.m.)—controlled room for 6 days before being used. All animals had free access to filtered tap water and standard pelleted laboratory chow (U.A.R., Villemois-son-sur-Orge, France). Animals were individually identified on the tail.
At the end of the acclimatization period, animals were individually housed in wire-topped plastic cages. A pre-weighed quantity of food and water were placed on the roof grids. Each rat was acclimated to the handling and dosing procedure the 3 days preceding the start of treatment. Water and food intake was measured during the 24 h that followed dosing procedure to establish baseline food and water intake for each animal. Thereafter, the rats were randomly assigned to either vehicle or drug treatment groups.
Between 9:00-10:00 a.m. on the day of study, the animals were injected p.o. with either vehicle or differing doses of test compounds in a volume of 2 ml/kg each day for 14 consecutive days. During the 5-day post-treatment period, vehicle was given to all groups.
Daily food and water intake was determined per cage throughout the 14-day treatment period and the 5-day post-treatment period. Individual body weights were checked daily for the subsequent treatment and post-treatment periods. Data were collected before each dosing procedure.

[5] = system: glucose-stimulated insulin release; assay: Inhibition of glucose-stimulated insulin release (NN-414 versus diazoxide); assay type: cell-based

With CN(C)CCNC(=NS(=O)(=O)N1CCCCC1)N1CC(c2ccccc2)C(c2ccc(Cl)cc2)=N1 (stereo not drawn) [Compound 2, 3-(4-chlorophenyl)-N-[2-(dimethylamino)ethyl]-4-phenyl-N′-(piperidin-1-ylsulfonyl)-4,5-dihydro-1H-pyrazole-1-carboximidamide] the “effect on insulin secretion” value [1] was “significantly inhibited insulin secretion (only at 0-30 min for compound 2)”.
CC1=NS(=O)(=O)c2cc(Cl)ccc2N1 [Diazoxide, diazoxide, reference compound] was tested, and the “effect on time-dependent insulin secretion” value ([2]; Phase 2, 11 mM glucose, 10 μM) was “only a partial inhibition”, the “reduction of mean insulin secretion” value ([2]; Phase 2, 11 mM glucose, 10 μM) was 50% and the “effect on time-dependent insulin secretion” value ([2]; Phase 2, 11 mM glucose, 100 μM) was “almost completely blocked the stimulatory effect of 11 mM glucose”. The “reduction of mean insulin secretion” value ([2]; Phase 2, 11 mM glucose, 100 μM) was 94%.
In the case of CN[C@@H](Cc1c[nH]c2ccccc12)C(=O)N1CC(c2ccccc2)C(c2ccc(Cl)cc2)=N1 (stereo partly drawn) [Compound 1, (2S)-1-[3-(4-chlorophenyl)-4-phenyl-4,5-dihydro-1H-pyrazol-1-yl]-3-(1H-indol-3-yl)-N-methyl-1-oxopropan-2-amine], the “effect on insulin secretion” value [1] is reported as “significantly inhibited insulin secretion” and the “pki (SUR1) compared with pki (SUR2)” value [3] is reported as “pki (SUR1) larger than pki (SUR2)”.
With CNC(=NS(=O)(=O)c1ccc(Cl)cc1)N1C[C@H](c2ccccc2)C(c2ccc(Cl)cc2)=N1 [Compound A, (4S)-3-(4-chlorophenyl)-N′-[(4-chlorophenyl)sulfonyl]-N-methyl-4-phenyl-4,5-dihydro-1H-pyrazole-1-carboximidamide] the “decrease of body weight in comparison to vehicle-treated rats” value (from here on “decrease of body weight in comparison”) ([4]; 3 mg/kg p.o. daily) was 5.3%, the “decrease of body weight in comparison” value ([4]; 10 mg/kg p.o. daily) was 6.7% and the “decrease of body weight in comparison” value ([4]; 30 mg/kg p.o. daily) was 5.9%. For the same molecule, the “effect on body weight during treatment” value ([4]; 3, 10 and 30 mg/kg p.o., 14 days) was “sustained non dose-dependent reduction in body weight at all doses administered”, the “body weight on interruption of drug treatment” value ([4]; 5-day post-treatment period) was “progressively returned towards control levels” and the “effect on insulin secretion at 4 mM glucose” value ([2]; Phase 1, 10 μM, 4 mM glucose) was “no effect of compound A on insulin secretion at 4 mM glucose in two experiments and a slight effect to stimulate insulin secretion in one experiment”. The “effect on insulin secretion at 8 mM glucose” value ([2]; Phase 1, 10 μM, 8 mM glucose) was “completely inhibited insulin secretion at 8 mM glucose in two of the experiments and moderately inhibited insulin secretion in the third experiment”, the “effect on insulin secretion at 16 mM glucose” value ([2]; Phase 1, 10 μM, 16 mM glucose) was “moderate effect to inhibit insulin secretion in one experiment but only a slight effect in the other experiment” and the “dose dependency of effect on mean insulin secretion” value ([2]; Phase 2, 11 mM glucose) was “dose-dependent effects to inhibit mean insulin secretion”. For the same molecule, the “doses at which inhibition of mean insulin secretion attained statistical significance” value ([2]; Phase 2, 11 mM glucose) was 3 µM and 10 µM, the “effect on time-dependent insulin secretion” value ([2]; Phase 2, 11 mM glucose, 10 μM) was “clearly more effective than the comparable (10 μM) dose of diazoxide” and the “reduction of mean insulin secretion” value ([2]; Phase 2, 11 mM glucose, 10 μM) was 74%. For the same molecule, the “dose dependency of effect on time-dependent insulin secretion” value ([2]; Phase 2, 11 mM glucose, four doses) was “dose-dependent effects to block insulin secretion” and the “pki (SUR1) compared with pki (SUR2)” value [3] was “pki (SUR1) larger than pki (SUR2)”.
CNC(=NS(=O)(=O)N1CCCCC1)N1C[C@H](c2ccccc2)C(c2ccc(Cl)cc2)=N1 [Compound 3, (4S)-3-(4-chlorophenyl)-N-methyl-4-phenyl-N′-(piperidin-1-ylsulfonyl)-4,5-dihydro-1H-pyrazole-1-carboximidamide] was tested, and the “amount of inhibition of insulin secretion compared with diazoxide” value [1] was “notably greater than diazoxide at 30-60 min” and the “effect on insulin secretion” value [1] was “significantly inhibited insulin secretion at both 0-30 and 30-60 min”.
With CC1(NC2=Nc3cc(Cl)sc3S(=O)(=O)N2)CC1 [NN-414] the “potency to inhibit glucose-stimulated insulin release relative to diazoxide” value [5] was 100 times.
With CNC(=NS(=O)(=O)c1ccc(C(F)(F)F)cc1)N1CC(c2cccnc2)C(c2ccc(Cl)cc2)=N1 (stereo not drawn) [Compound 4, 3-(4-chlorophenyl)-N-methyl-4-pyridin-3-yl-N′-{[4-(trifluoromethyl)phenyl]sulfonyl}-4,5-dihydro-1H-pyrazole-1-carboximidamide] the “amount of inhibition of insulin secretion compared with diazoxide” value [1] was “notably greater than diazoxide at 30-60 min”, the “effect on insulin secretion” value [1] was “significantly inhibited insulin secretion at both 0-30 and 30-60 min” and the “pki (SUR1) compared with pki (SUR2)” value [3] was “pki (SUR1) larger than pki (SUR2)”.
